Reference: ChEMBL document CHEMBL1130085, “Substituted 3-(phenylsulfonyl)-1-phenylimidazolidine-2,4-dione derivatives as novel nonpeptide inhibitors of human heart chymase” (J Med Chem, 1997)

Columns and labels:
Chymotrypsinogen A = Chymotrypsinogen A (Bos taurus, UniProt P00766); experiment: Inhibitory activity against bovine pancreas alpha-chymotrypsin in vitro
Chymase = biological target: T1, Chymase (Homo sapiens, UniProt P23946); experiment: Inhibitory activity against human heart chymase in vitro.
T1 sequence (P23946 whole entry): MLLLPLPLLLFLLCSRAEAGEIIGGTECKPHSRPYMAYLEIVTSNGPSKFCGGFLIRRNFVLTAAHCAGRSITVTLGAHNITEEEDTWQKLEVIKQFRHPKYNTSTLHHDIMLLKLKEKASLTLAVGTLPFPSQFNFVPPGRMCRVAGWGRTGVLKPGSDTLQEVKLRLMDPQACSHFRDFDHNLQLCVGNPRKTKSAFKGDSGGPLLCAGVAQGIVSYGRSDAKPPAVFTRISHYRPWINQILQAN

Cathepsin G = biological target: T2, Cathepsin G (Homo sapiens, UniProt P08311); experiment: Inhibitory activity against human neutrophil cathepsin G.
T2 sequence (P08311 whole entry): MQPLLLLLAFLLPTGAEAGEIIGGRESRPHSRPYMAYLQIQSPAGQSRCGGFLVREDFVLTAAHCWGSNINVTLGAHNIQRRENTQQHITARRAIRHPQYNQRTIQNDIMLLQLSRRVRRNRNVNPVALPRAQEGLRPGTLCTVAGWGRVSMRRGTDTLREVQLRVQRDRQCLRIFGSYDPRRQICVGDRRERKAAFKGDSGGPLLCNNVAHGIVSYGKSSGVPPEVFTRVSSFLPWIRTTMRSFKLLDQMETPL

Row | SMILES | IC50 (Chymotrypsinogen A) [µM] | IC50 (Chymase) [µM] | IC50 (Cathepsin G) [µM]
1 | Cc1ccccc1S(=O)(=O)N1C(=O)CN(c2ccccc2)C1=O | 1.1 | 1.8 | 1.8
2 | O=C1CN(c2ccccc2)C(=O)N1S(=O)(=O)Cc1ccccc1 | 37 | > 100 | 
3 | O=C1CN(c2ccccc2)C(=O)N1S(=O)(=O)c1ccc(Cl)cc1 | 1.1 |  | 
4 | O=C(OCN1C(=O)CN(c2ccccc2)C1=O)c1ccccc1 | > 100 | > 100 | > 100
5 | O=C1CN(c2ccc(Cl)c(Cl)c2)C(=O)N1S(=O)(=O)c1ccc(Cl)c(Cl)c1 | 3.7 | 0.17 | 3.7
6 | O=C(O)c1cccc(S(=O)(=O)N2C(=O)CN(c3ccccc3)C2=O)c1 | 8.5 |  | 1
7 | O=C1CN(c2cccc(Cl)c2)C(=O)N1S(=O)(=O)c1ccc(Cl)cc1 | 0.2 | 0.066 | 
8 | O=C(O)c1ccc(S(=O)(=O)N2C(=O)CN(c3ccccc3)C2=O)cc1 | 44 |  | 1.9
9 | Cc1ccc(N2CC(=O)N(S(=O)(=O)c3ccc(C)c(C)c3)C2=O)cc1C | > 100 |  | 
10 | COc1ccc(N2CC(=O)N(S(=O)(=O)c3ccc(Cl)cc3)C2=O)cc1OC | > 100 | 14 | > 100
11 | O=C1CN(c2ccccc2)C(=O)N1S(=O)(=O)c1ccc(Br)cc1 | 2.4 | 0.17 | 
12 | O=C1CN(c2ccccc2)C(=O)N1S(=O)(=O)c1cccc(Cl)c1 | > 100 | 0.13 | 2.5
13 | CN1CCN(C(=O)c2cccc(S(=O)(=O)N3C(=O)CN(c4ccccc4)C3=O)c2)CC1 | 1.4 | 0.9 | 4.8
14 | O=C1CN(c2ncccn2)C(=O)N1S(=O)(=O)c1ccc(Cl)cc1 | 52 | 33 | 
15 | O=C1CN(c2ccccc2)C(=O)N1S(=O)(=O)c1ccccc1 | 1.4 |  | 4.5
16 | COC(=O)Cc1ccc(S(=O)(=O)N2C(=O)CN(c3ccccc3)C2=O)cc1 | 11 |  | 6.5
17 | O=C1CN(c2ccccc2)C(=O)N1S(=O)(=O)c1ccccc1Cl | 1.2 | 1.1 | 2.2
18 | O=C1CN(c2ccccc2)C(=O)N1S(=O)(=O)c1ccc(Oc2ccccc2)cc1 | 8 |  | 3.7
19 | O=C(O)c1ccc(N2CC(=O)N(S(=O)(=O)c3ccc(Cl)cc3)C2=O)cc1 | 42 |  | > 100
20 | CC(=O)Nc1ccc(N2CC(=O)N(S(=O)(=O)c3ccc(Cl)cc3)C2=O)cc1 | > 100 | > 100 | > 100
21 | COC(=O)c1ccc(S(=O)(=O)N2C(=O)CN(c3ccccc3)C2=O)cc1 | 1.8 |  | 
22 | N#Cc1cccc(S(=O)(=O)N2C(=O)CN(c3ccccc3)C2=O)c1 | 0.73 |  | 
23 | O=C1CN(c2ccccc2)C(=O)N1S(=O)(=O)c1ccc(F)cc1 | 2.6 | 0.37 | 1.5
24 | Cc1ccc(S(=O)(=O)N2C(=O)CN(c3ccccc3)C2=O)cc1C | 2 | 0.03 | 
25 | COc1ccc(S(=O)(=O)N2C(=O)CN(c3ccc(C)c(C)c3)C2=O)cc1OC | > 100 | 0.022 | > 100
26 | Cc1ccc(N2CC(=O)N(S(=O)(=O)c3ccc(Cl)cc3)C2=O)cc1C | 43 | 0.035 | 3.7

Next, values leading:

Row | IC50 (Chymotrypsinogen A) [µM] | IC50 (Chymase) [µM] | IC50 (Cathepsin G) [µM] | SMILES
27 | 73 |  |  | O=C(O)c1ccccc1N1CC(=O)N(S(=O)(=O)c2ccc(Cl)cc2)C1=O
28 | 8 |  | 6.5 | O=C1CN(c2ccccc2)C(=O)N1S(=O)(=O)c1ccc([N+](=O)[O-])cc1
29 | 0.23 | > 100 | 3 | O=C1CN(c2ccccc2)C(=O)N1C(=O)c1ccc(Cl)cc1
30 | 4 |  | 5.4 | COC(=O)Cc1cccc(S(=O)(=O)N2C(=O)CN(c3ccccc3)C2=O)c1
31 | > 100 |  | 4.1 | COc1ccc(S(=O)(=O)N2C(=O)CN(c3ccccc3)C2=O)cc1OC
32 | 5.8 |  | 4.2 | COc1ccc(S(=O)(=O)N2C(=O)CN(c3ccccc3)C2=O)cc1
33 | 6.4 | 3.3 |  | CN1CCN(C(=O)c2ccc(S(=O)(=O)N3C(=O)CN(c4ccccc4)C3=O)cc2)CC1
34 | 3.8 | 0.018 |  | O=C1CN(c2ccccc2)C(=O)N1S(=O)(=O)c1ccc(Cl)c(Cl)c1
35 | 0.048 | 20 | 7 | O=C1CN(c2ccccc2)C(=O)N1C(=O)c1ccccc1
36 | 63 | 0.02 |  | Cc1ccc(N2CC(=O)N(S(=O)(=O)c3ccc(Cl)c(Cl)c3)C2=O)cc1C
37 | 15 |  |  | N#Cc1ccc(S(=O)(=O)N2C(=O)CN(c3ccccc3)C2=O)cc1
38 | > 100 | 27 | > 100 | CN1CCN(C(=O)c2ccc(N3CC(=O)N(S(=O)(=O)c4ccc(Cl)cc4)C3=O)cc2)CC1
39 | 1.7 |  |  | COC(=O)c1cccc(S(=O)(=O)N2C(=O)CN(c3ccccc3)C2=O)c1
40 | 30 | 35 |  | O=C1CN(C2CCCCC2)C(=O)N1S(=O)(=O)c1ccc(Cl)cc1
41 | 4 | 0.023 | 22 | O=C1CN(c2ccc(Cl)c(Cl)c2)C(=O)N1S(=O)(=O)c1ccc(Cl)cc1
42 | 20 | 0.22 | 2 | O=C1CN(c2ccccc2Cl)C(=O)N1S(=O)(=O)c1ccc(Cl)cc1
43 | > 100 |  | > 100 | O=C(O)c1cccc(N2CC(=O)N(S(=O)(=O)c3ccc(Cl)cc3)C2=O)c1
44 | > 100 | 18 |  | O=C1CN(c2ccccn2)C(=O)N1S(=O)(=O)c1ccc(Cl)cc1
45 | 37 |  | 5.9 | O=C1CN(c2ccccc2Oc2ccccc2)C(=O)N1S(=O)(=O)c1ccc(Cl)cc1
46 | > 100 | > 100 |  | O=C1CN(S(=O)(=O)c2ccc(Cl)cc2)C(=O)N1c1ccc(Cl)cc1
